Key:
Test in all cases: biochemical
[1] = target: T1, panel of 374 wild-type kinases (Homo sapiens, UniProt P42680); conditions: read-out: % Enzyme Activity (relative to DMSO controls), kinase TEC
T1 construct: purchased Reaction Biology Corporation
T1 sequence (P42680 1-631): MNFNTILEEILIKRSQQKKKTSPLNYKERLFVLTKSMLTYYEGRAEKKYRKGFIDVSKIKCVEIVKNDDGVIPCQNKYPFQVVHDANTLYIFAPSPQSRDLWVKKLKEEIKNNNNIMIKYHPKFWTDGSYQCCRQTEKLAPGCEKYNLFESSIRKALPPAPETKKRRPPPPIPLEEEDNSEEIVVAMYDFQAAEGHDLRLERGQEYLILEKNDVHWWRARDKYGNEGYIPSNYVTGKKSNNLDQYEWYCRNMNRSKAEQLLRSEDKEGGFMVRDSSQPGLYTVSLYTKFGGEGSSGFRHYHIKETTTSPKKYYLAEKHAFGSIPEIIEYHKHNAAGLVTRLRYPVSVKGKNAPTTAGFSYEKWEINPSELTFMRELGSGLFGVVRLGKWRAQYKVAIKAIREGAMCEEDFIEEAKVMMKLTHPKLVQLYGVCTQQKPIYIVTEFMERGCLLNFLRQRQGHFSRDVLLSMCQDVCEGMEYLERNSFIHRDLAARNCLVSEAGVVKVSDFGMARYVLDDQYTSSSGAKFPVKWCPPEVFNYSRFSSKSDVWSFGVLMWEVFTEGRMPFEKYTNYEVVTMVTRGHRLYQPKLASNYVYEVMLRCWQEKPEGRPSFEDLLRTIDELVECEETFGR

[2] = target: T2, panel of 374 wild-type kinases (Homo sapiens, UniProt P35968); conditions: read-out: % Enzyme Activity (relative to DMSO controls), KDR/VEGFR2
T2 construct: purchased Reaction Biology Corporation
T2 sequence (P35968 20-1356): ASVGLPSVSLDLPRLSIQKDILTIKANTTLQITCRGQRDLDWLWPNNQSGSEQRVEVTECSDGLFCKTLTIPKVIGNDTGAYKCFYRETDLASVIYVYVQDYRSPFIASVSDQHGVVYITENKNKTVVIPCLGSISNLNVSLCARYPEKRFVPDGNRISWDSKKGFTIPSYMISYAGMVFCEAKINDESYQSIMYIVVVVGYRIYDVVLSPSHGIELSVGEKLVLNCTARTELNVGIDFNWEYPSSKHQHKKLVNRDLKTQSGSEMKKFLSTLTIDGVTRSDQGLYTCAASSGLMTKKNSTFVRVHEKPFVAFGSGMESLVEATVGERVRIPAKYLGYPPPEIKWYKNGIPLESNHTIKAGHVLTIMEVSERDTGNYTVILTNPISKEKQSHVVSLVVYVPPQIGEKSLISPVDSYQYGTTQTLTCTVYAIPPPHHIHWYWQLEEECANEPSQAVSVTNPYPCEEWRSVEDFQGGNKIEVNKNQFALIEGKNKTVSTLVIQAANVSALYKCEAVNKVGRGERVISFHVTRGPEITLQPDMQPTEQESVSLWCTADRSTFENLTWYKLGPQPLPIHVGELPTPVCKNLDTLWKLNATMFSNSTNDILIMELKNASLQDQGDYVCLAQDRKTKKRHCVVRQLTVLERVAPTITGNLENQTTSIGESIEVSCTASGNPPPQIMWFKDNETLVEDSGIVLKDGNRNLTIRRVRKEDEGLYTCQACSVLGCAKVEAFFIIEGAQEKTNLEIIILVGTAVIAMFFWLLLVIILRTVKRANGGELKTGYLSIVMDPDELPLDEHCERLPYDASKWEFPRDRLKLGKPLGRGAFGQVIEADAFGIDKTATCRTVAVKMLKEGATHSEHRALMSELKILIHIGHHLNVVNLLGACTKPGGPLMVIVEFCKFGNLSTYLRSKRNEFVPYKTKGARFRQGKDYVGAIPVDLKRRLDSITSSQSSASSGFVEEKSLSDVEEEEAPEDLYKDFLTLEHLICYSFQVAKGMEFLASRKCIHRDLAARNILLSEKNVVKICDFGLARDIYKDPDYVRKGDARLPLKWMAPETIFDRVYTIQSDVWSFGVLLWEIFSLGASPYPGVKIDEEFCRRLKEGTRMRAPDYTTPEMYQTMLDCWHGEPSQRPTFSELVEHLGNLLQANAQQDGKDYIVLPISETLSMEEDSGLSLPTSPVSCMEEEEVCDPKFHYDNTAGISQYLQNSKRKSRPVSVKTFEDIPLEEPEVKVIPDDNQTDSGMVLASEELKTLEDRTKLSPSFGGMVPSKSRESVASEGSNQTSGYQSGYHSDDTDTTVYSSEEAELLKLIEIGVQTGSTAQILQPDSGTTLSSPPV

[3] = target: T3, panel of 374 wild-type kinases (Homo sapiens, UniProt O94806); conditions: read-out: % Enzyme Activity (relative to DMSO controls), kinase PKCnu/PRKD3
T3 construct: purchased Reaction Biology Corporation
T3 sequence (O94806 1-890): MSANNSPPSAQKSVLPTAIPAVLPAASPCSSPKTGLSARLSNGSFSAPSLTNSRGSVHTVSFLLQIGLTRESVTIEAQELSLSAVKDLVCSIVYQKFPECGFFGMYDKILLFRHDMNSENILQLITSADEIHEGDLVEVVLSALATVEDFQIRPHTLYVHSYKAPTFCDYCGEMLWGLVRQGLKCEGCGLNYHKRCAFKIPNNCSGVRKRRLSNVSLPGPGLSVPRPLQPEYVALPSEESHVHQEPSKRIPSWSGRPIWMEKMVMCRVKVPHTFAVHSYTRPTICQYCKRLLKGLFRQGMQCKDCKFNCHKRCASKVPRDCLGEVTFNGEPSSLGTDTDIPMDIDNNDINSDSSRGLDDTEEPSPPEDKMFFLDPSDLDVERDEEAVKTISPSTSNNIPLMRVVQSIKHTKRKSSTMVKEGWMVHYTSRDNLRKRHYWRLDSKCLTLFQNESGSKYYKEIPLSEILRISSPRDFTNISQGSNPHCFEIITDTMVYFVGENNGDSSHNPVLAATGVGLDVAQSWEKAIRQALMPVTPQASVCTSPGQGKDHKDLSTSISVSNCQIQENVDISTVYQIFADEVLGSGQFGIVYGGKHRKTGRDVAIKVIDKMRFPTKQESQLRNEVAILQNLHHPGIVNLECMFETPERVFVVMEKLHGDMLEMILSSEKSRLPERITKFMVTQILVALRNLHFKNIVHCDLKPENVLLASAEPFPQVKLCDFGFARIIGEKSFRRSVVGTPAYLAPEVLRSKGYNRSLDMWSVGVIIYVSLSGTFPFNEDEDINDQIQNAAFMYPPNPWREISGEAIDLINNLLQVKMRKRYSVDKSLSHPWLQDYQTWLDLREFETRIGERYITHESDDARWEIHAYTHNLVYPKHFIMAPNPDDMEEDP

[4] = target: T4, panel of 374 wild-type kinases (Homo sapiens, UniProt Q8NG66); conditions: read-out: % Enzyme Activity (relative to DMSO controls), NEK11
T4 construct: purchased Reaction Biology Corporation
T4 sequence (Q8NG66 1-645): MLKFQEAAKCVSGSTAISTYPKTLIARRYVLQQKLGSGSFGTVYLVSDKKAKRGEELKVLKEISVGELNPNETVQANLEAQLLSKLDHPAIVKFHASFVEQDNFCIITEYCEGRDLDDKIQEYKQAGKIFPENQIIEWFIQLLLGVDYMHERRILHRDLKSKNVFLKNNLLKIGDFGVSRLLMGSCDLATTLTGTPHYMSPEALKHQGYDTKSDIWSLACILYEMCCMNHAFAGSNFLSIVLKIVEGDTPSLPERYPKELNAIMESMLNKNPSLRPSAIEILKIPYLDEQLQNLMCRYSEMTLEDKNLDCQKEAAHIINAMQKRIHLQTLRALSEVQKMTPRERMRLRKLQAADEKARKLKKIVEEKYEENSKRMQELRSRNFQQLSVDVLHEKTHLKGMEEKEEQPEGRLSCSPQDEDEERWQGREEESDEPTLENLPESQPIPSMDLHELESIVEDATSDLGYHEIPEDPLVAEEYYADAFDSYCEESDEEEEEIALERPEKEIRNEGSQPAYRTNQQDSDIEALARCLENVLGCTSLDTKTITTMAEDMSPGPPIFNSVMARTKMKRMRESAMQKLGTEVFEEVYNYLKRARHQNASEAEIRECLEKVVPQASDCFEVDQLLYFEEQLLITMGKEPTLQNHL

[5] = target: T5, panel of 374 wild-type kinases (Homo sapiens, UniProt O94804); conditions: read-out: % Enzyme Activity (relative to DMSO controls), LOK/STK10
T5 construct: purchased Reaction Biology Corporation
T5 sequence (O94804 whole entry): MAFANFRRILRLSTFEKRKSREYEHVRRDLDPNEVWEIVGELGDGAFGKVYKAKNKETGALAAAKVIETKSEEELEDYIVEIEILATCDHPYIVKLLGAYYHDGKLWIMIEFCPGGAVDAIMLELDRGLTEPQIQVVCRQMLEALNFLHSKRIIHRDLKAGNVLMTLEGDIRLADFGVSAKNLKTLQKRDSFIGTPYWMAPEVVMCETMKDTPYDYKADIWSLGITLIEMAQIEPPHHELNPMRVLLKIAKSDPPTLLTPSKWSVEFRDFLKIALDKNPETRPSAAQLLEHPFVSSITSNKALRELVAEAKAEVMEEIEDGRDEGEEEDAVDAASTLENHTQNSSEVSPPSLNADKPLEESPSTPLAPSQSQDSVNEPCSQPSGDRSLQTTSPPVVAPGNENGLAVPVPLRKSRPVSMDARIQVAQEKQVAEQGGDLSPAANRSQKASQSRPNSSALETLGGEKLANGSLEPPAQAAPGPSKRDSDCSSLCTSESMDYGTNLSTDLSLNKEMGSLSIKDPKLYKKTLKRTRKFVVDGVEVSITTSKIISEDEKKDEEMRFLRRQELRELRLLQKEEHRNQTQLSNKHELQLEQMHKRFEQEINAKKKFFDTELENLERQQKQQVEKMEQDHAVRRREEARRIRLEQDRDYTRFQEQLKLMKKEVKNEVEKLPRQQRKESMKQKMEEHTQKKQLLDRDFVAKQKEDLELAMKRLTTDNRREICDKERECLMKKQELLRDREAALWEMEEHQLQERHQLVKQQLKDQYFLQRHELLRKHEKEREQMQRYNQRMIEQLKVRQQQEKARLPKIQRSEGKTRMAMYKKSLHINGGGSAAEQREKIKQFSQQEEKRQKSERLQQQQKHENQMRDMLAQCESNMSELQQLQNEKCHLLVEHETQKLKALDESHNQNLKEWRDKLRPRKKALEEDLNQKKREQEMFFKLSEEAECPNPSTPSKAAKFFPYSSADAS

Row | Structure (SMILES) | remaining activity at 5 µM [1] [%] | remaining activity at 5 µM [2] [%] | remaining activity at 5 µM [3] [%] | remaining activity at 5 µM [4] [%] | remaining activity at 5 µM [5] [%] | remaining activity at 10 µM ([1]; 10 uM) [%] | remaining activity at 10 µM ([2]; 10 uM) [%] | remaining activity at 10 µM ([3]; 10 uM) [%] | remaining activity at 10 µM ([4]; 10 uM) [%] | remaining activity at 10 µM ([5]; 10 uM) [%]
1 | O=C(Nc1cnn(-c2csc(C(=O)NC3COC3)c2)c1)Nc1ccccc1Cl [Compound 17, 4-(4-(3-(2-chlorophenyl)ureido)-1H-pyrazol-1-yl)-N-(oxetan-3-yl)thiophene-2-carboxamide] | 97.2 | 95.2 | 104 | 145 | 87.9 | – | – | – | – | –
2 | O=C(Nc1cnn(-c2csc(C(=O)NC3COC3)c2)c1)Nc1c(F)cccc1Cl [Compound 25, 4-(4-(3-(2-chloro-6-fluorophenyl)ureido)-1H-pyrazol-1-yl)-N-(oxetan-3-yl)thiophene-2-carboxamide] | 97.7 | 88.3 | 105 | 89.5 | 89 | – | – | – | – | –
3 | Cc1sc(C(=O)NC2COC2)cc1-n1cc(NC(=O)Nc2c(F)cccc2Cl)cn1 [Compound 27, 4-(4-(3-(2-chloro-6-fluorophenyl)ureido)-1H-pyrazol-1-yl)-5-methyl-N-(oxetan-3-yl)thiophene-2-carboxamide] | – | – | – | – | – | 91.1 | 88.2 | 105 | 70 | 96.4

From patent US20240246942A1, “KINASE INHIBITORS FOR THE TREATMENT OF NEURODEGENERATIVE DISEASES” (priority 2020, published 2024)
